# Reference: article PMC6405930, “Conservation of the Amyloid Interactome Across Diverse Fibrillar Structures” (Scientific Reports, 2019)
# Tests used:
# FAS4-AD aggregates [1] = system: T1, FAS4-AD aggregates; assay: Fibril incubation with plasma, quantitative MS/MS of bound proteins; assay type: binding, human; set-up: key to Identification status of plasma protein bound: FAS4-AD: *: Identified, but not quantified; —: Not identified in any of the samples; conditions: for Relative composition of plasma proteins bound: FAS4-AD: 50:1 w/w plasma protein:fibril; for Identification status of plasma protein bound: FAS4-AD: symbol cells
# T1 construct: aggregates of a mutated version of the FAS1-4 domain of TGFBIp
# Procedure: (§1) Plasma and CSF solutions were centrifuged (40,000 g, 20 min) to remove any aggregates. The protein concentration was determined using 280 nm absorbance assuming 1 Abs = 1 mg/mL. […] Control samples (without fibril material) were prepared similarly. All samples were incubated at room temperature for one hour under gentle agitation. Fibrils and fibril-bound proteins were pelleted by centrifugation at 17,000 g for 30 minutes. The supernatant (175 μL) was removed and the aggregate was re-suspended in 175 μL PBS and pelleted again before further preparation for gel analysis and spin-filter assisted digest for quantitative MS/MS.
# (§2) The fibril-protein pellets were transferred to spin-filters (0.22 μm), washed twice in PBS (100 μL) and once in 1 M NaCl (100 μL). The fibrils and fibril-bound proteins were dissolved by one-hour incubation in 100 μL 6 M guanidinium chloride followed by elution from the spin-filter. The eluted proteins were loaded onto a 3 kDa MWCO filter unit for filter-assisted unfolding, reduction, alkylation, and trypsin digestion. In brief, samples were washed twice in 8 M urea, once in 8 M urea with 50 mM DTT, once in 8 M urea with 50 mM iodoaceteamide, and twice in 8 M Urea. The filter units were dried by centrifugation (14,000 g in 30 minutes) after every addition. Trypsin digestion was carried out with 0.25 μg sequencing grade trypsin from Sigma Aldrich in 50 mM ammonium bicarbonate overnight at 37 °C. The tryptic peptides were collected by centrifugation, acidified with TFA (0.1%) and micro-purified using POROS R2 column material (Applied Biosystems) packed in P200 pipette tips (Sarstedt).
# (§3) LC-MS/MS analyses were performed on an EASY-nLC II system (Thermo Fisher Scientific) connected to a TripleTOF 5600+ mass spectrometer (Sciex) equipped with a NanoSpray III source (Sciex) and operated under Analyst TF 1.6.0 control.
# (§4) The micro-purified tryptic peptides were dissolved in 0.1% formic acid, injected and trapped on an in-house packed trap column (2 cm × 100 μm I.D) with RP ReproSil-Pur C18-AQ 3 μm resin (Dr. Maisch GmbH). Peptides were eluted from the trap column and separated on a 15 cm analytical column (75 μm i.d.) packed in-house in a pulled emitter with RP ReproSil-Pur C18-AQ 3 μm resin (Dr. Maisch GmbH). Elution from the analytical column was performed with a linear gradient from 5% to 35% phase B (90% acetonitrile with 0.1% formic acid) over 20 min for protein identification and 50 min for quantitative analysis, respectively.
# (§5) All samples were analysed three times, yielding nine MS/MS experiments for each fibril for both plasma and CSF. For the area-based extracted ion chromatogram (XIC) quantification, the acquisition method was set up as an information-dependent acquisition (IDA) experiment collecting up to 25 MS/MS spectra in each 1.6 sec cycle using an exclusion window of 6 sec.
# (§6) XIC quantification was based on the average ion intensity of the three most abundant peptides for each protein. Only proteins quantified in at least four out of nine MS/MS experiments per fibril were included in the quantification. The total ion scores were visualized after grouping the proteins according to function (Figure S11).
# (§7) For each MS/MS experiment, the ion intensities of the individual proteins were normalized to the total ion intensity of that MS/MS experiment to achieve a relative protein composition. The contribution of each protein was averaged over all nine MS/MS experiments (Tables 1 and 2).
# glucagon fibrils [2] = target: T2, glucagon fibrils (Homo sapiens, UniProt P01275); assay: as above; assay type: binding; set-up: key to Identification status of plasma protein bound: Glucagon: *: Identified, but not quantified; —: Not identified in any of the samples; conditions: for Relative composition of plasma proteins bound: Glucagon: 50:1 w/w plasma protein:fibril
# T2 construct: fibrils of the peptide hormone glucagon
# Procedure: as §1, §2, §3, §4, §5, §6, §7
# αSN fibrils [3] = target: T3, αSN fibrils (Homo sapiens, UniProt P37840); assay: as above; assay type: binding; conditions: 50:1 w/w plasma protein:fibril
# Procedure: as §1, §2, §3, §4, §5, §6, §7
# Ab2 fibrils [4] = system: T4, Ab2 fibrils; assay: as above; assay type: binding, human; set-up: key to Identification status of plasma protein bound: Ab2: *: Identified, but not quantified; —: Not identified in any of the samples; conditions: for Identification status of plasma protein bound: Ab2: symbol cells; for Relative composition of plasma proteins bound: Ab2: 50:1 w/w plasma protein:fibril
# T4 construct: Two structurally distinct fibrils of the Aβ(1–40) peptide associated with AD
# Procedure: as §1, §2, §3, §4, §5, §6, §7
# Ab1 fibrils [5] = system: T5, Ab1 fibrils; assay: as above; assay type: binding, human; set-up: key to Identification status of plasma protein bound: Ab1: *: Identified, but not quantified; —: Not identified in any of the samples; conditions: for Relative composition of plasma proteins bound: Ab1: 50:1 w/w plasma protein:fibril
# T5 construct: Synthetic amyloid β peptide 1–40 was purchased from Caslo Aps (Lyngby, Denmark); purchased Caslo Aps (Lyngby, Denmark); host or cells: synthetic peptide
# Procedure: Plasma and CSF solutions were centrifuged (40,000 g, 20 min) to remove any aggregates. The protein concentration was determined using 280 nm absorbance assuming 1 Abs = 1 mg/mL. […] Control samples (without fibril material) were prepared similarly. All samples were incubated at room temperature for one hour under gentle agitation. Fibrils and fibril-bound proteins were pelleted by centrifugation at 17,000 g for 30 minutes. The supernatant (175 μL) was removed and the aggregate was re-suspended in 175 μL PBS and pelleted again before further preparation for gel analysis and spin-filter assisted digest for quantitative MS/MS.
# as §2, §3, §4, §5, §6, §7
# C-36 fibrils [6] = target: T6, C-36 fibrils (Homo sapiens, UniProt P01009); assay: as above; assay type: binding; conditions: 50:1 w/w plasma protein:fibril
# T6 construct: the 36 residue C-terminal fragment of α1-antitrypsin (C-36)
# Procedure: as §1, §2, §3, §4, §5, §6, §7
# FAS4-AD aggregates [7] = system: T1, FAS4-AD aggregates; assay: Fibril incubation with CSF, quantitative MS/MS of bound proteins; assay type: binding, human; set-up: key to Identification status of CSF protein bound: FAS4-AD: *: Identified, but not quantified; —: Not identified in any of the samples; conditions: for Identification status of CSF protein bound: FAS4-AD: symbol cells
# Procedure: as §1, §2, §3, §4, §5, §6, §7
# C-36 fibrils [8] = target: T6, C-36 fibrils; assay: as above; assay type: binding; set-up: key to Identification status of CSF protein bound: C-36: *: Identified, but not quantified; —: Not identified in any of the samples; conditions: for Relative composition of CSF proteins bound: C-36: 4:1 w/w CSF protein:fibril
# Procedure: as §1, §2, §3, §4, §5, §6, §7
# αSN fibrils [9] = target: T3, αSN fibrils; assay: as above; assay type: binding; set-up: key to Identification status of CSF protein bound: αSN: *: Identified, but not quantified; —: Not identified in any of the samples; conditions: for Relative composition of CSF proteins bound: αSN: 4:1 w/w CSF protein:fibril
# Procedure: as §1, §2, §3, §4, §5, §6, §7
# glucagon fibrils [10] = target: T2, glucagon fibrils; assay: as above; assay type: binding; conditions: 4:1 w/w CSF protein:fibril
# Procedure: as §1, §2, §3, §4, §5, §6, §7
# Ab2 fibrils [11] = system: T4, Ab2 fibrils; assay: as above; assay type: binding, human; set-up: key to Identification status of CSF protein bound: Ab2: *: Identified, but not quantified; —: Not identified in any of the samples; conditions: for Relative composition of CSF proteins bound: Ab2: 4:1 w/w CSF protein:fibril
# Procedure: as §1, §2, §3, §4, §5, §6, §7
# Ab1 fibrils [12] = system: T5, Ab1 fibrils; assay: as above; assay type: binding, human; set-up: key to Identification status of CSF protein bound: Ab1: *: Identified, but not quantified; —: Not identified in any of the samples; conditions: for Relative composition of CSF proteins bound: Ab1: 4:1 w/w CSF protein:fibril
# Procedure: as §1, §2, §3, §4, §5, §6, §7
# T2 sequence (P01275 53-81 limits assumed): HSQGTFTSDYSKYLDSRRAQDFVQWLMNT
# T6 sequence (P01009 383-418 limits assumed): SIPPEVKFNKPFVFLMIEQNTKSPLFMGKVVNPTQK
Substance,Relative composition of plasma proteins bound: FAS4-AD (FAS4-AD aggregates [1]),Relative composition of plasma proteins bound: αSN (αSN fibrils [3]),Relative composition of plasma proteins bound: C-36 (C-36 fibrils [6]),Identification status of plasma protein bound: FAS4-AD (FAS4-AD aggregates [1]),Relative composition of plasma proteins bound: Glucagon (glucagon fibrils [2]),Relative composition of plasma proteins bound: Ab1 (Ab1 fibrils [5]),Relative composition of plasma proteins bound: Ab2 (Ab2 fibrils [4]),Identification status of CSF protein bound: FAS4-AD (FAS4-AD aggregates [7]),Relative composition of CSF proteins bound: C-36 (C-36 fibrils [8]),Relative composition of CSF proteins bound: αSN (αSN fibrils [9]),Relative composition of CSF proteins bound: Glucagon (glucagon fibrils [10]),Relative composition of CSF proteins bound: Ab2 (Ab2 fibrils [11]),Relative composition of CSF proteins bound: Ab1 (Ab1 fibrils [12]),further results
"Apolipoprotein C-I: plasma protein bound to fibrils (TPDVSSALDKLKEFGNTLEDKARELISRIKQSELSAKMREWFSETFQKVKEKLKIDS; UniProt P02654 27-83, looked up)",1.8 ± 0.1 % of total protein,5.5 ± 2.1 % of total protein,0.6 ± 0.4 % of total protein,,,,,,,,,,,Identification status of plasma protein bound: Glucagon (glucagon fibrils [2]; symbol cells): *; Identification status of plasma protein bound: Ab2 (Ab2 fibrils [4]): *; Identification status of plasma protein bound: Ab1 (Ab1 fibrils [5]; symbol cells): *
Apolipoprotein C-III: plasma protein bound to fibrils,,11.7 ± 3.0 % of total protein,4.9 ± 0.3 % of total protein,*,0.3 ± 0.0 % of total protein,0.9 ± 0.1 % of total protein,,,,,,,,Relative composition of plasma proteins bound: αSN (αSN fibrils [3]; listed as ApoC-III): 11.7 % of total protein; Identification status of plasma protein bound: Ab2 (Ab2 fibrils [4]): *
Coagulation factor IX: plasma protein bound to fibrils,,0.3 ± 0.1 % of total protein,0.2 ± 0.0 % of total protein,*,0.1 ± 0.0 % of total protein,0.2 ± 0.0 % of total protein,0.3 ± 0.1 % of total protein,,,,,,,
Dickkopf-related protein 3: CSF protein bound to fibrils,,,,,,,,—,3.9 ± 1.5 % of total protein,10.9 ± 1.0 % of total protein,1.5 ± 0.4 % of total protein,5.5 ± 2.2 % of total protein,7.2 ± 0.3 % of total protein,
Fibrinogen β chain: plasma protein bound to fibrils,1.8 ± 0.2 % of total protein,7.7 ± 2.3 % of total protein,9.1 ± 0.8 % of total protein,,8.9 ± 1.1 % of total protein,11.8 ± 1.1 % of total protein,7.5 ± 0.9 % of total protein,,,,,,,
Fibrinogen γ chain: plasma protein bound to fibrils,1.5 ± 0.4 % of total protein,7.7 ± 1.3 % of total protein,11.7 ± 2.0 % of total protein,,6.7 ± 0.3 % of total protein,9.8 ± 0.3 % of total protein,7.0 ± 0.3 % of total protein,,,,,,,
Gelsolin,,,,,,,,—,1.9 ± 0.2 % of total protein,5.0 ± 0.9 % of total protein,0.8 ± 0.1 % of total protein,3.5 ± 0.6 % of total protein,2.9 ± 0.1 % of total protein,
Ig κ chain C region: CSF protein bound to fibrils,,,,,,,,*,,,0.5 ± 0.0 % of total protein,,,Identification status of CSF protein bound: C-36 (C-36 fibrils [8]; symbol cells): *; Identification status of CSF protein bound: αSN (αSN fibrils [9]; symbol cells): *; Identification status of CSF protein bound: Ab2 (Ab2 fibrils [11]; symbol cells): *; Identification status of CSF protein bound: Ab1 (Ab1 fibrils [12]; symbol cells): *
Transthyretin,,,,,,,,,2.4 ± 0.2 % of total protein,4.3 ± 1.1 % of total protein,1.1 ± 0.2 % of total protein,4.0 ± 1.3 % of total protein,3.0 ± 0.5 % of total protein,Relative composition of CSF proteins bound: FAS4-AD (FAS4-AD aggregates [7]; 4:1 w/w CSF protein:fibril): 4.4 ± 0.3 % of total protein
Vitamin K-dependent protein S: plasma protein bound to fibrils,,2.5 ± 0.1 % of total protein,0.6 ± 0.1 % of total protein,*,0.8 ± 0.1 % of total protein,1.1 ± 0.0 % of total protein,1.3 ± 0.1 % of total protein,,,,,,,
